From patent US20100104659A1, “BENZOPYRANOPYRAZOLES” (priority 2006, published 2010)

test system: RKO human colon adenocarcinoma cells (RKOp27 subclone), proliferating; assay: Alamar Blue cell viability assay, RKO p27 uninduced (proliferating); conditions: RKOp27, 72 h, read-out: −log EC50 [mol/l] RKO p27 uninduced (proliferating), anti-proliferative/cytotoxic activity (converted)
Method: The anti-proliferative/cytotoxic activity of the compounds described herein can be tested on subclones of RKO human colon adenocarcinoma cells (Schmidt et al., Oncogene 19, 2423-2429; 2000) using the Alamar Blue cell viability assay (described in O'Brien et al. Eur J Biochem 267, 5421-5426, 2000). The compounds are dissolved as 10 mM solutions in DMSO and subsequently diluted in semi-logarithmic steps. DMSO dilutions are further diluted 1:100 into Dulbecco's modified Eagle's medium (DMEM) containing 10% fetal calf serum to a final concentration twice as much as the final concentration in the test. RKO subclones are seeded into 96 well flat bottom plates at a density of 4000 cells per well in a volume of 50 μl per well. 24 hours after seeding the 50 μl each of the compound dilutions in DMEM medium are added into each well of the 96 well plate. Each compound dilution is tested as triplicates. Wells containing untreated control cells are filled with 50 μl DMEM medium containing 1% DMSO. The cells are then incubated with the substances for 72 hours at 37° C. in a humidified atmosphere containing 5% carbon dioxide. To determine the viability of the cells, 10 μl of an Alamar Blue solution (Biosource) are added and the fluorescence is measured at an extinction of 544 nm and an emission of 590 nm. For the calculation of the cell viability the emission value from untreated cells is set as 100% viability and the emission rates of treated cells are set in relation to the values of untreated cells. Viabilities are expressed as % values. The Graphpad Prism program (GraphPad Software, Inc) is used for the calculation of EC50 values for anti-proliferative/cytotoxic activity out of the obtained dose-response curves.
Each compound dilution is tested as triplicates. Wells containing untreated control cells are filled with 50 μl DMEM medium containing 1% DMSO. The cells are then incubated with the substances for 72 hours at 37° C. in a humidified atmosphere containing 5% carbon dioxide. To determine the viability of the cells, 10 μl of an Alamar Blue solution (Biosource) are added and the fluorescence is measured at an extinction of 544 nm and an emission of 590 nm. For the calculation of the cell viability the emission value from untreated cells is set as 100% viability and the emission rates of treated cells are set in relation to the values of untreated cells. Viabilities are expressed as % values. The Graphpad Prism program is used for the calculation of EC50 values out of the obtained dose-response curves. Viability is compared of proliferating cells grown in the absence of the inducer Ponasterone A, versus viability of cells arrested by the expression of ectopic p27Kip1 induced by Ponasterone A.

| SMILES | EC50 |
| --- | --- |
| CC(=O)N1CCN(CCN(C)C(=O)N2N=C3c4cc(F)ccc4OC[C@@H]3[C@@H]2c2ccccc2)CC1 (racemic) [Example 29, (3RS,3aRS)-8-Fluoro-3-phenyl-3a,4-dihydro-3H-chromeno[4,3-c]pyrazole-2-carboxylic acid [2-(4-acetyl-piperazin-1-yl)-ethyl]methyl-amide] | 100 to 1000 nM |
| CN1CCC(N(C)C(=O)N2N=C3c4cc(F)ccc4OC[C@@H]3[C@@H]2c2cccc(O)c2)CC1 (single isomer, unassigned) [Example 3, (3RS,3aRS)-8-Fluoro-3-(3-hydroxy-phenyl)-3a,4-dihydro-3H-chromeno[4,3-c]pyrazole-2-carboxylic acid methyl-(1-methyl-piperidin-4-yl)-amide] | ≤ 100 nM |
| CN(CCCN)C(=O)N1N=C2c3cc(F)ccc3OC[C@@H]2[C@@H]1c1ccccc1 (racemic) [Example 20, (3RS,3aRS)-8-Fluoro-3-phenyl-3a,4-dihydro-3H-chromeno[4,3-c]pyrazole-2-carboxylic acid (3-amino-propyl)-methyl-amide] | 100 to 1000 nM |
| COCCNCCN(C)C(=O)N1N=C2c3cc(F)ccc3OC[C@H]2[C@H]1c1ccccc1 (racemic) [Example 47, (3SR,3aSR)-8-Fluoro-3-phenyl-3a,4-dihydro-3H-chromeno[4,3-c]pyrazole-2-carboxylic acid [2-(2-methoxy-ethylamino)-ethyl]-methyl-amide] | 100 to 1000 nM |
| CN(C)CCCN(C)C(=O)N1N=C2c3cc(F)ccc3OC[C@@H]2[C@@H]1c1cccc(O)c1 (racemic) [Example 6, (3RS,3aRS)-8-Fluoro-3-(3-hydroxy-phenyl)-3a,4-dihydro-3H-chromeno[4,3-c]pyrazole-2-carboxylic acid (3-dimethylamino-propyl)-methyl-amide] | ≤ 100 nM |
| CCN(CCOC)CCN(C)C(=O)N1N=C2c3cc(F)ccc3OC[C@H]2[C@H]1c1ccccc1 (racemic) [Example 57, (3SR,3aSR)-8-Fluoro-3-phenyl-3a,4-dihydro-3H-chromeno[4,3-c]pyrazole-2-carboxylic acid {2-[ethyl-(2-methoxy-ethyl)-amino]-ethyl}-methyl-amide] | 100 to 1000 nM |
| CN(CCN1CCCC1)C(=O)N1N=C2c3cc(F)ccc3OC[C@@H]2[C@@H]1c1ccccc1 (racemic) [Example 28, (3RS,3aRS)-8-Fluoro-3-phenyl-3a,4-dihydro-3H-chromeno[4,3-c]pyrazole-2-carboxylic acid methyl-(2-pyrrolidin-1-yl-ethyl)-amide] | 100 to 1000 nM |
| CN(CCCN1CCC1)C(=O)N1N=C2c3cc(F)ccc3OC[C@H]2[C@H]1c1ccccc1 (racemic) [Example 38, (3SR,3aSR)-8-Fluoro-3-phenyl-3a,4-dihydro-3H-chromeno[4,3-c]pyrazole-2-carboxylic acid (3-azetidin-1-yl-propyl)-methyl-amide] | ≤ 100 nM |
| COCCNCCCN(C)C(=O)N1N=C2c3cc(F)ccc3OC[C@H]2[C@H]1c1ccccc1 (racemic) [Example 48, (3SR,3aSR)-8-Fluoro-3-phenyl-3a,4-dihydro-3H-chromeno[4,3-c]pyrazole-2-carboxylic acid [3-(2-methoxy-ethylamino)-propyl]-methyl-amide] | ≤ 100 nM |
| C#CCN(C)CCN(C)C(=O)N1N=C2c3cc(F)ccc3OC[C@H]2[C@H]1c1ccccc1 (racemic) [Example 64, (3SR,3aSR)-8-Fluoro-3-phenyl-3a,4-dihydro-3H-chromeno[4,3-c]pyrazole-2-carboxylic acid methyl-[2-(methyl-prop-2-ynyl-amino)-ethyl]-amide] | 100 to 1000 nM |
| CN(CCNC1CC1)C(=O)N1N=C2c3cc(F)ccc3OC[C@H]2[C@H]1c1ccccc1 (racemic) [Example 60, (3SR,3aSR)-8-Fluoro-3-phenyl-3a,4-dihydro-3H-chromeno[4,3-c]pyrazole-2-carboxylic acid (2-cyclopropylamino-ethyl)-methyl-amide] | 100 to 1000 nM |
| CC(C)CNCCN(C)C(=O)N1N=C2c3cc(F)ccc3OC[C@H]2[C@H]1c1ccccc1 (racemic) [Example 41, (3SR,3aSR)-8-Fluoro-3-phenyl-3a,4-dihydro-3H-chromeno[4,3-c]pyrazole-2-carboxylic acid (2-isobutylamino-ethyl)-methyl-amide] | ≤ 100 nM |
| CN(C)CCCN(C)C(=O)N1N=C2c3cc(F)ccc3OC[C@@H]2[C@@H]1c1ccccc1 (racemic) [Example 11, (3RS,3aRS)-8-Fluoro-3-phenyl-3a,4-dihydro-3H-chromeno[4,3-c]pyrazole-2-carboxylic acid (3-dimethylamino-propyl)-methyl-amide] | ≤ 100 nM |
| CN(CCCN1CCCCC1)C(=O)N1N=C2c3cc(F)ccc3OC[C@H]2[C@H]1c1ccccc1 (racemic) [Example 37, (3SR,3aSR)-8-Fluoro-3-phenyl-3a,4-dihydro-3H-chromeno[4,3-c]pyrazole-2-carboxylic acid methyl-(3-piperidin-1-yl-propyl)-amide] | ≤ 100 nM |
| CCN(CC)CCCN(C)C(=O)N1N=C2c3cc(F)ccc3OC[C@H]2[C@H]1c1ccccc1 (racemic) [Example 46, (3SR,3aSR)-8-Fluoro-3-phenyl-3a,4-dihydro-3H-chromeno[4,3-c]pyrazole-2-carboxylic acid (3-diethylamino-propyl)-methyl-amide] | ≤ 100 nM |
| CN1CCC(N(C)C(=O)N2N=C3c4cc(F)ccc4OC[C@@H]3[C@@H]2c2ccccc2)CC1 (racemic) [Example 9, (3RS,3aRS)-8-Fluoro-3-phenyl-3a,4-dihydro-3H-chromeno[4,3-c]pyrazole-2-carboxylic acid methyl-(1-methyl-piperidin-4-yl)-amide] | ≤ 100 nM |
| CC(C)CNCCCN(C)C(=O)N1N=C2c3cc(F)ccc3OC[C@H]2[C@H]1c1ccccc1 (racemic) [Example 42, (3SR,3aSR)-8-Fluoro-3-phenyl-3a,4-dihydro-3H-chromeno[4,3-c]pyrazole-2-carboxylic acid (3-isobutylamino-propyl)-methyl-amide] | 100 to 1000 nM |
| C=CCNCCN(C)C(=O)N1N=C2c3cc(F)ccc3OC[C@H]2[C@H]1c1ccccc1 (racemic) [Example 51, (3SR,3aSR)-8-Fluoro-3-phenyl-3a,4-dihydro-3H-chromeno[4,3-c]pyrazole-2-carboxylic acid (2-allylamino-ethyl)-methyl-amide] | 100 to 1000 nM |
| CN(CCN)C(=O)N1N=C2c3cc(F)ccc3OC[C@H]2[C@H]1c1ccccc1 (stereo in doubt) [Example 18a, (3SR,3aSR)-8-Fluoro-3-phenyl-3a,4-dihydro-3H-chromeno[4,3-c]pyrazole-2-carboxylic acid (2-amino-ethyl)-methyl-amide] | ≤ 100 nM |
| CCN(CCN(C)C)C(=O)N1N=C2c3cc(F)ccc3OC[C@@H]2[C@@H]1c1ccccc1 (racemic) [Example 10, (3RS,3aRS)-8-Fluoro-3-phenyl-3a,4-dihydro-3H-chromeno[4,3-c]pyrazole-2-carboxylic acid (2-dimethylamino-ethyl)-ethyl-amide] | ≤ 100 nM |
| CN(C)CCN(C)C(=O)N1N=C2c3cc(F)ccc3OC[C@@H]2[C@@H]1c1cccc(O)c1 (racemic) [Example 4, (3RS,3aRS)-8-Fluoro-3-(3-hydroxy-phenyl)-3a,4-dihydro-3H-chromeno[4,3-c]pyrazole-2-carboxylic acid (2-dimethylamino-ethyl)-methyl-amide] | ≤ 100 nM |
